This passage reports TGI results from PubChem BioAssay (NCI).

SMILES strings stand for the structures.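 Where inhibition never reached the appropriate level, the endpoint shown equals the highest concentration tested. Otherwise, values were interpolated linearly from a five-concentration, 48-hour dose response in 96-well plates. TGI denotes the concentration required for complete inhibition of growth.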

Test systems include NCI-H23 lung; EKVX NSCLC; SN12C renal; OVCAR-3 ovarian; MDA-MB-231 breast; RPMI-8226 leukemia; HL-60(TB) leukemia; A498 renal; NCI-H460 lung; SNB-75 CNS; SK-MEL-2 melanoma; UO-31 renal; OVCAR-8 ovarian; SR leukemia; MDA-MB-435; MALME-3M melanoma.
What all share (experiment): NCI-60 cell line screen, 48 h

On to `COc1ccc(-n2c(=O)c3[nH]c(=S)[nH]c3n(-c3ccc(OC)cc3)c2=S)cc1`, for which the TGI in the assay on NCI-H23 lung, with EKVX NSCLC, in the assay on SN12C renal, in the assay with OVCAR-3 ovarian, in the assay with MDA-MB-231 breast and with RPMI-8226 leukemia was greater than 100 µM throughout. Moreover, the TGI in the assay with HL-60(TB) leukemia, in the assay on A498 renal, with NCI-H460 lung, in the assay with SNB-75 CNS, in the assay on SK-MEL-2 melanoma and in the assay with UO-31 renal was greater than 100 µM throughout. Besides, the TGI with OVCAR-8 ovarian, in the assay on SR leukemia and with MDA-MB-435 was greater than 100 µM throughout.

Take `CC(C)(C)OC(=O)N/C(C=O)=C\C1CCCCC1`: the TGI is 62 µM with NCI-H23 lung; 35.4 µM in the assay with EKVX NSCLC; 42.1 µM in the assay with SN12C renal; 73.1 µM in the assay with OVCAR-3 ovarian; 44.2 µM in the assay on MDA-MB-231 breast; 65.4 µM in the assay on HL-60(TB) leukemia. Also, the TGI in the assay with MALME-3M melanoma was 70.4 µM; in the assay on NCI-H460 lung it was 40.6 µM; with SNB-75 CNS it was greater than 100 µM; in the assay on SK-MEL-2 melanoma, 54.9 µM; in the assay on UO-31 renal, 30.2 µM; in the assay on OVCAR-8 ovarian it was 31.7 µM. The values for the TGI in the assay with SR leukemia and in the assay with MDA-MB-435 were 42.8 µM and 49.5 µM, respectively.

`COc1cccc(N=N/C(=N/NC(=O)c2ccc(C)cc2)c2ccc(N(CCC#N)CCC#N)cc2OC)c1`: the TGI in the assay on NCI-H23 lung is greater than 100 µM; in the assay with EKVX NSCLC it was 37.4 µM; in the assay with SN12C renal it was greater than 100 µM; with OVCAR-3 ovarian it was greater than 100 µM; in the assay with MDA-MB-231 breast, greater than 100 µM; in the assay on RPMI-8226 leukemia, greater than 100 µM. For the same compound, the TGI with A498 renal, with MALME-3M melanoma, in the assay on NCI-H460 lung, in the assay on SK-MEL-2 melanoma, in the assay on UO-31 renal and in the assay on OVCAR-8 ovarian was greater than 100 µM each time. For the same compound, the TGI in the assay with SR leukemia and in the assay with MDA-MB-435 was greater than 100 µM in each case.

As for `CC1=NN(c2cccc(Cl)c2)C2(C1=Cc1ccc(O)cc1)C(Cl)C(=O)N2c1nc2ccccc2s1` (centres undefined), the TGI in the assay on NCI-H23 lung was 38.4 µM; in the assay on EKVX NSCLC, greater than 100 µM; in the assay on OVCAR-3 ovarian, greater than 100 µM; with MDA-MB-231 breast, 76.1 µM; in the assay with RPMI-8226 leukemia, 55.8 µM; in the assay with HL-60(TB) leukemia, greater than 100 µM. Further, the TGI was found to be 42.5 µM in the assay on A498 renal; 89.3 µM in the assay with NCI-H460 lung; 45.9 µM with SK-MEL-2 melanoma; 30.6 µM with UO-31 renal; 87.8 µM in the assay on OVCAR-8 ovarian; 57.7 µM in the assay on SR leukemia. For the same compound, the TGI in the assay on MDA-MB-435 is 83.4 µM.

Regarding `O=C1COc2cc(N3CCN(c4cccc(C(F)(F)F)c4)CC3)ccc2N1`, the TGI in the assay on NCI-H23 lung, in the assay with EKVX NSCLC, in the assay on SN12C renal, in the assay on OVCAR-3 ovarian, with MDA-MB-231 breast and with RPMI-8226 leukemia was greater than 100 µM throughout. Also, the TGI in the assay on HL-60(TB) leukemia, in the assay on NCI-H460 lung, in the assay with SNB-75 CNS, with SK-MEL-2 melanoma, in the assay on UO-31 renal and with OVCAR-8 ovarian was greater than 100 µM each time. Besides, the TGI in the assay on SR leukemia and in the assay with MDA-MB-435 was greater than 100 µM throughout.

Take `COC(=O)c1ccccc1C1CN=NC12Cc1c(ccc3c1CCC3)C2=O` (centres undefined): the TGI was greater than 100 µM with NCI-H23 lung; greater than 100 µM in the assay with EKVX NSCLC; greater than 100 µM with SN12C renal; greater than 100 µM in the assay with OVCAR-3 ovarian; greater than 100 µM in the assay on MDA-MB-231 breast; 86 µM in the assay on RPMI-8226 leukemia. Also, the TGI with HL-60(TB) leukemia is 59.3 µM; in the assay on MALME-3M melanoma, greater than 100 µM; in the assay on NCI-H460 lung it was greater than 100 µM; in the assay with SNB-75 CNS, greater than 100 µM; in the assay with SK-MEL-2 melanoma, greater than 100 µM; in the assay with UO-31 renal it was greater than 100 µM. Also, the figures for the TGI in the assay with OVCAR-8 ovarian, in the assay on SR leukemia and in the assay on MDA-MB-435 were greater than 100 µM, greater than 100 µM and 56.2 µM, respectively.

For `CC[C@@]1(O)C(=O)OCc2c1cc1n(c2=O)Cc2c-1nc1ccc(O)cc1c2[Si](C)(C)C(C)(C)C`, the TGI in the assay with NCI-H23 lung was 0.0274 µM; in the assay with EKVX NSCLC it was 15.8 µM; in the assay with SN12C renal it was less than 0.0233 µM; in the assay on OVCAR-3 ovarian, 0.0752 µM; in the assay on MDA-MB-231 breast, 20.6 µM; in the assay with RPMI-8226 leukemia it was 4.77 µM. The TGI was less than 0.01 µM with HL-60(TB) leukemia; 0.179 µM with MALME-3M melanoma; 0.0263 µM in the assay on NCI-H460 lung; 0.0162 µM in the assay with SNB-75 CNS; 0.786 µM in the assay with SK-MEL-2 melanoma; 0.0357 µM with UO-31 renal. In addition, the values for the TGI with OVCAR-8 ovarian, in the assay with SR leukemia and in the assay with MDA-MB-435 were greater than 42.3 µM, less than 0.0112 µM and 1.65 µM, respectively.

In the case of `CCOC(=O)c1ccc(Nc2nc3ccccc3nc2-c2cccs2)cc1`, the TGI in the assay with NCI-H23 lung is greater than 100 µM; with EKVX NSCLC, greater than 100 µM; in the assay on SN12C renal, 99.3 µM; in the assay with OVCAR-3 ovarian it was greater than 100 µM; in the assay on MDA-MB-231 breast, greater than 100 µM; with RPMI-8226 leukemia, greater than 100 µM. In addition, the TGI with HL-60(TB) leukemia, in the assay on MALME-3M melanoma, with NCI-H460 lung, in the assay on SNB-75 CNS, in the assay on UO-31 renal and in the assay on OVCAR-8 ovarian was greater than 100 µM in each case. In addition, the TGI in the assay with SR leukemia and with MDA-MB-435 was greater than 100 µM in each case.

With `Cc1cn(C2CCC(CO)(CF)O2)c(=O)[nH]c1=O` (centres undefined), the TGI in the assay with NCI-H23 lung, in the assay on EKVX NSCLC, with SN12C renal, with OVCAR-3 ovarian, in the assay on MDA-MB-231 breast and with RPMI-8226 leukemia was greater than 100 µM throughout. The TGI with HL-60(TB) leukemia, in the assay with A498 renal, with NCI-H460 lung, in the assay on SNB-75 CNS, with SK-MEL-2 melanoma and in the assay with UO-31 renal was greater than 100 µM in each case. Also, the TGI with OVCAR-8 ovarian, with SR leukemia and in the assay on MDA-MB-435 was greater than 100 µM in each case.
